The target in one assay is Aminopeptidase N (Plasmodium falciparum FcB1/Columbia, UniProt O96935). The experiment in a line: malaria alanyl aminopeptidase activity blockers – biochemical, fluorogenic H-Leu-NHMec substrate, 1536-well (AID 1445). The arrangement: species or system Plasmodium falciparum 3D7, 3D7.
The target in the next assay is Large T antigen (Simian virus 40, UniProt P03070). The class given is functional, Betapolyomavirus macacae.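 Also: Confirmatory-stage PubChem screen for compounds that inhibit SV40 T antigen.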
Sequence of Large T antigen (P03070 whole entry): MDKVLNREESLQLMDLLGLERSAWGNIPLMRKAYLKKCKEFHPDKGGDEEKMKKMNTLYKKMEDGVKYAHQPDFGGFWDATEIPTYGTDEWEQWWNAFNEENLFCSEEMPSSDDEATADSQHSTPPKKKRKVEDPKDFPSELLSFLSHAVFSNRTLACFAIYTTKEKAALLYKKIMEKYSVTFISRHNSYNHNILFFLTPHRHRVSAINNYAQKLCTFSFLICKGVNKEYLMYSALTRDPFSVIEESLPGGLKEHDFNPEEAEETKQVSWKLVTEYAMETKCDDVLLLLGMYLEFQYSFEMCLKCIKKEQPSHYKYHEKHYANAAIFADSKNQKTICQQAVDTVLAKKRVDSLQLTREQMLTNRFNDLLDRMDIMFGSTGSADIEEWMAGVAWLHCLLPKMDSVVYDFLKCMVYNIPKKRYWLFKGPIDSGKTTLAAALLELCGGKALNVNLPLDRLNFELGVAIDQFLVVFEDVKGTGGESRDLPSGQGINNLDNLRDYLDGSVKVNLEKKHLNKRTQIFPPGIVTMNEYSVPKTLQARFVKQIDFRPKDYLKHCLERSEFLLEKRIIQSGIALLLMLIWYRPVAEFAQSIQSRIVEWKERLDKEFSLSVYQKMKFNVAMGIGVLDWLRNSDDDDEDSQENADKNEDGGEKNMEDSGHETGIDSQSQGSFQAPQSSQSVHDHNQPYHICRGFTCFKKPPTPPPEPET
Assay [1] deals with T1, Calpain-2 catalytic subunit (Sus scrofa, UniProt P43367).
T1 sequence (P43367 whole entry): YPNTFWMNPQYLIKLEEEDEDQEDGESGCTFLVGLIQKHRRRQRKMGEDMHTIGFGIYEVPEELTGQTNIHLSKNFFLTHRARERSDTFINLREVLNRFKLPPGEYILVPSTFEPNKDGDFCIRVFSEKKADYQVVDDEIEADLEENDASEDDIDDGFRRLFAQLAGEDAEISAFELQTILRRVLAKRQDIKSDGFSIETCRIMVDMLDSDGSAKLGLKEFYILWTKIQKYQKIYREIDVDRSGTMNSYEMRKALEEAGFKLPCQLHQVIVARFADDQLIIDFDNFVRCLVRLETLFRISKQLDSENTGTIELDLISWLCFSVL
Nature of the assay: m-calpain protease blockers, concentration series – biochemical, fluorogenic peptide substrate, dose response (AID 1420). The class given is functional.

Assay [2] concerns the target Bifunctional protein GlmU (Mycobacterium tuberculosis, UniProt P9WMN3). The experiment in a line: Inhibitors of Mycobacterial Glucosamine-1-phosphate acetyl transferase (GlmU). Secondary screen. The arrangement: species or system Mycobacterium tuberculosis H37Rv.
The target of assay [3] is Induced myeloid leukemia cell differentiation protein Mcl-1 (Homo sapiens, UniProt Q07820). The class given is functional.
Sequence of Induced myeloid leukemia cell differentiation protein Mcl-1 (Q07820 whole entry): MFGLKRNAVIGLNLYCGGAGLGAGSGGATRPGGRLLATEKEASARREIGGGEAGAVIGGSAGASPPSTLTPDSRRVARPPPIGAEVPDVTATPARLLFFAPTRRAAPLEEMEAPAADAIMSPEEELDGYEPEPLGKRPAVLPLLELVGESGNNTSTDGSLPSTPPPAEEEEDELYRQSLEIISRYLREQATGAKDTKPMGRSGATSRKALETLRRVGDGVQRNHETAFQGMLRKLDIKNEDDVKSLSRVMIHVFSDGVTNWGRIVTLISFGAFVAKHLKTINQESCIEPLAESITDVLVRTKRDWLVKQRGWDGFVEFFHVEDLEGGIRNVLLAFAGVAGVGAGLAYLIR
The target in assay [4] is T2, Intestinal-type alkaline phosphatase (Mus musculus, UniProt P24822). Nature of the assay: PubChem AID 488785. The class given is functional.
T2 sequence (P24822 whole entry): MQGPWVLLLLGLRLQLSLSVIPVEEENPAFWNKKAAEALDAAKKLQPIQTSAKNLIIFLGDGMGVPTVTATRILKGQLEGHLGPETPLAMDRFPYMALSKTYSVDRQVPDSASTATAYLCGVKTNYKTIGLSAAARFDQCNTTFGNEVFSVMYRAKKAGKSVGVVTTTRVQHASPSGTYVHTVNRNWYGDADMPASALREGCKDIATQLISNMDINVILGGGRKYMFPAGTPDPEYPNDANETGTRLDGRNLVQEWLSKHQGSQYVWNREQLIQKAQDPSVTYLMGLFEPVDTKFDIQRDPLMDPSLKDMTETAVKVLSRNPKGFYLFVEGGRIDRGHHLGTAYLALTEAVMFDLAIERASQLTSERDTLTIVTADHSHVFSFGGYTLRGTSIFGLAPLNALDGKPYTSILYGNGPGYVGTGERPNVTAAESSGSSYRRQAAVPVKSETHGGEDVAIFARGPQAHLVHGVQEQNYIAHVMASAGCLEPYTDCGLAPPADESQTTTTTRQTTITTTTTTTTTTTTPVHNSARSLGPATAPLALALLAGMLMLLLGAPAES
Assay [5] concerns the target T3, Alkaline phosphatase, tissue-nonspecific isozyme (Homo sapiens, UniProt P05186).
T3 sequence (P05186 whole entry): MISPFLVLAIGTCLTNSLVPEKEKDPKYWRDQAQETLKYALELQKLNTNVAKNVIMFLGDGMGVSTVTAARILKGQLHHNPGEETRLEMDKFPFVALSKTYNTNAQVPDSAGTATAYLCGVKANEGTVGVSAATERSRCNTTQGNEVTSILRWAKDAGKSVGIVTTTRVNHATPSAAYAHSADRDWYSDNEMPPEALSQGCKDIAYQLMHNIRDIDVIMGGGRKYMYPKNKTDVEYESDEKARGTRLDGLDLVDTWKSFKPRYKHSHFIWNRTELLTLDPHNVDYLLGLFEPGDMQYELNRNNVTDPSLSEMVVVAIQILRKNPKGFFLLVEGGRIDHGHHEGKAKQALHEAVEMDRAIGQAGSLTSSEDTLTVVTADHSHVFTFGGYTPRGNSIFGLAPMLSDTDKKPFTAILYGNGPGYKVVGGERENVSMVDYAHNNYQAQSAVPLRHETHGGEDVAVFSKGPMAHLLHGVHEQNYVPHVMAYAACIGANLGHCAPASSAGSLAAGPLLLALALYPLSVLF
Nature of the assay: TNAP enzyme inhibition by screening hits, dose response, selectivity assay for mouse IAP inhibitor project, biochemical, human TNAP, uHTS hits (AID 488906). The class given is functional.

Assay [6] deals with T4, Intestinal-type alkaline phosphatase (Homo sapiens, UniProt P09923). The experiment in a line: inhibition of human intestinal alkaline phosphatase – biochemical, dose response (AID 488876). The class given is functional.
T4 sequence (P09923 whole entry): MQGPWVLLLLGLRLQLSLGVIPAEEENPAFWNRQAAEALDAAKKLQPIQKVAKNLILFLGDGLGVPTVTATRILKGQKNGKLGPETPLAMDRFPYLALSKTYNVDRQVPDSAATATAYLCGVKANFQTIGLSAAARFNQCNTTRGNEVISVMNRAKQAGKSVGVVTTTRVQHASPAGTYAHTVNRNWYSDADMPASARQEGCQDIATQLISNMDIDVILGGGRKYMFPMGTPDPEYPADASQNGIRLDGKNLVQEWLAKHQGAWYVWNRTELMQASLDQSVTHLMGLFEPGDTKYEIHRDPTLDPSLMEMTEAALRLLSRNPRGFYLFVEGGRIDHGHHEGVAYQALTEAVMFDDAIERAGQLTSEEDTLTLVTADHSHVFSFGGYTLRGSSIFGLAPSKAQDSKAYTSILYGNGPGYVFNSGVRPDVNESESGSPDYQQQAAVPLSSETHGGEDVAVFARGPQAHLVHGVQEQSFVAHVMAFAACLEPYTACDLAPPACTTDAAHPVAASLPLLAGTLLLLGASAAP
The target in assay [7] is Lysine-specific demethylase 4C (Homo sapiens, UniProt Q9H3R0). Nature of the assay: inhibition of JMJD2C H3K9me3 demethylation – biochemical, DELFIA europium, cherry-picked samples, dose response (AID 488835). Format: functional.
Sequence of Lysine-specific demethylase 4C (Q9H3R0 whole entry): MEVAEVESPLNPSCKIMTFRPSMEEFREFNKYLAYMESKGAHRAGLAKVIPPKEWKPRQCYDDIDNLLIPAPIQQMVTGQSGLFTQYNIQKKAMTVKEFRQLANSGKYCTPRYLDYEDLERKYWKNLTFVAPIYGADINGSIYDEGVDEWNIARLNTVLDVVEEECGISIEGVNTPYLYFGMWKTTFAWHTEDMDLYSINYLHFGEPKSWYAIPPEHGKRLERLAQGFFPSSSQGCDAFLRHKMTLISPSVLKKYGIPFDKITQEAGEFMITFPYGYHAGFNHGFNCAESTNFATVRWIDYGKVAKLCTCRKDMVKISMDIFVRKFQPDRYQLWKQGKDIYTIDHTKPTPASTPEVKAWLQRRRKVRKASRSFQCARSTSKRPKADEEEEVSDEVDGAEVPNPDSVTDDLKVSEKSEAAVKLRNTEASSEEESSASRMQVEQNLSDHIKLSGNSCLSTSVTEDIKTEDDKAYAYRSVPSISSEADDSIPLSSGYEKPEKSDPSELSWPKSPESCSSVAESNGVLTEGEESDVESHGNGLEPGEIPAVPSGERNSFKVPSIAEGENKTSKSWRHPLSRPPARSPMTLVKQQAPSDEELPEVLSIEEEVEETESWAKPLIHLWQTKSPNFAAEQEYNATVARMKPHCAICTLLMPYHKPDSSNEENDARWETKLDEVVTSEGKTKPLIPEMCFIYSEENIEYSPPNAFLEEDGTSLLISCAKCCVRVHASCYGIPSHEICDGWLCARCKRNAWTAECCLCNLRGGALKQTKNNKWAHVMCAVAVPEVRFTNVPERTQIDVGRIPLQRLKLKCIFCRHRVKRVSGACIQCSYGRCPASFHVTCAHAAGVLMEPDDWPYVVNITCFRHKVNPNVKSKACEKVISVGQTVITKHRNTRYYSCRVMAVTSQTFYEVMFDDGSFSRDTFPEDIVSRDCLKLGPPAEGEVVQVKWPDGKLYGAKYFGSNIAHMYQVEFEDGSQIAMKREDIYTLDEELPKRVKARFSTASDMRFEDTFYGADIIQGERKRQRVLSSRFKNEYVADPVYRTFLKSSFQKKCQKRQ
For assay [8], the target named is T5, RNA-binding protein pos-1 (Caenorhabditis elegans, UniProt G5EF15).
T5 sequence (G5EF15 whole entry): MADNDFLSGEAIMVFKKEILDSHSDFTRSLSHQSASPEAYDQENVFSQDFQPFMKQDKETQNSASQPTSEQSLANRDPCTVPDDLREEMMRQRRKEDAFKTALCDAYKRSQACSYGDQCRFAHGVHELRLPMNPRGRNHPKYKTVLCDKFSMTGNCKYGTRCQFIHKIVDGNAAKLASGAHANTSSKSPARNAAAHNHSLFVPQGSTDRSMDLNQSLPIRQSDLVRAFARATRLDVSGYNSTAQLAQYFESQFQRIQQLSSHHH
The experiment in a line: disruptors of C. elegans POS-1 RNA interaction – biochemical, fluorescence polarization, dose response (AID 1964).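 Also: purified POS-1 fused to maltose binding protein made in E. coli; potency of compounds blocking POS-1 binding to fluorescent RNA.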

Assay [9] has as its target T6, Zinc finger protein mex-5 (Caenorhabditis elegans, UniProt Q9XUB2).
T6 sequence (Q9XUB2 whole entry): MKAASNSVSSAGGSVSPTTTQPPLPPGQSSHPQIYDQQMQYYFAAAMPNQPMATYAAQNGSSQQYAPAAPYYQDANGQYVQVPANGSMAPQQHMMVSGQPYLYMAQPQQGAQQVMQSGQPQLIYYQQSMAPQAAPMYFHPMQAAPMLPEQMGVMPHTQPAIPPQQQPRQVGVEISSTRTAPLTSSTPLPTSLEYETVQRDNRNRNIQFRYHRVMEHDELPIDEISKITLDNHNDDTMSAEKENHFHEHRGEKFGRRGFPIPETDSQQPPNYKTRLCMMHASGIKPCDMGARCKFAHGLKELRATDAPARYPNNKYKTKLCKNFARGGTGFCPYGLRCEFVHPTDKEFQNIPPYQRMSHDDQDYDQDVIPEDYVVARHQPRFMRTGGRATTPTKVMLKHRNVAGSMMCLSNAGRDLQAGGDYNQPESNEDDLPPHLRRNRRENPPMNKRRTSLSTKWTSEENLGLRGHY
The experiment in a line: potency of MEX-5 RNA-binding blockers – biochemical, C. elegans, fluorescence polarization, dose response (AID 1960). On the technique in general: Fluorescence polarisation rises when a labelled molecule tumbles more slowly, as on binding a larger partner.

For assay [10], the target named is T2, Intestinal-type alkaline phosphatase. Nature of the assay: PubChem AID 488874. The class given is functional.
Assay [11] addresses T4, Intestinal-type alkaline phosphatase. Nature of the assay: human intestinal alkaline phosphatase activators, dose response, biochemical, luminescence, uHTS hits (AID 463120). The class given is functional.
Assay [12] has the same target. The experiment in a line: activation of human intestinal alkaline phosphatase – biochemical, luminescent, uHTS hits, set 2, dose response (AID 488817).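 Also: potency of activators that raise enzyme activity.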 Format: functional.
In assay [13] the target is T3, Alkaline phosphatase, tissue-nonspecific isozyme. The experiment in a line: activation of tissue-nonspecific alkaline phosphatase – biochemical, TNAP isozyme, human IAP uHTS hits, selectivity assay for human IAP activator project, dose response (AID 488886).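 Also: potency of compounds raising TNAP activity as a selectivity check on IAP activators.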 The class given is functional.
For assay [14], the target named is G-protein coupled receptor 55 (Homo sapiens, UniProt Q9Y2T6). Nature of the assay: blockers of GPR55 signalling, imaged – imaging, image-based, counter-screen for GPR35 antagonist project, SAR follow-up (AID 2397). The class given is functional. Background: Counterscreens check selectivity or assay interference.
Sequence of G-protein coupled receptor 55 (Q9Y2T6 whole entry): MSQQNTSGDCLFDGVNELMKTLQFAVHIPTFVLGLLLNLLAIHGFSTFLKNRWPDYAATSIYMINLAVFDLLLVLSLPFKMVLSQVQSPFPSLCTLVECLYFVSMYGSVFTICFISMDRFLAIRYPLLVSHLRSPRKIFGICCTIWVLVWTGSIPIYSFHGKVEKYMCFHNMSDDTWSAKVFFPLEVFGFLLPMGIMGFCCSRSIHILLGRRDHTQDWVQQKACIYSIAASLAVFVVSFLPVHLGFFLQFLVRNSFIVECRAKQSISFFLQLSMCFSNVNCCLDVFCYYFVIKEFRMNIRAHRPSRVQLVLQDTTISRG

The source made the active and inactive calls.

Sequence of Aminopeptidase N (O96935 whole entry): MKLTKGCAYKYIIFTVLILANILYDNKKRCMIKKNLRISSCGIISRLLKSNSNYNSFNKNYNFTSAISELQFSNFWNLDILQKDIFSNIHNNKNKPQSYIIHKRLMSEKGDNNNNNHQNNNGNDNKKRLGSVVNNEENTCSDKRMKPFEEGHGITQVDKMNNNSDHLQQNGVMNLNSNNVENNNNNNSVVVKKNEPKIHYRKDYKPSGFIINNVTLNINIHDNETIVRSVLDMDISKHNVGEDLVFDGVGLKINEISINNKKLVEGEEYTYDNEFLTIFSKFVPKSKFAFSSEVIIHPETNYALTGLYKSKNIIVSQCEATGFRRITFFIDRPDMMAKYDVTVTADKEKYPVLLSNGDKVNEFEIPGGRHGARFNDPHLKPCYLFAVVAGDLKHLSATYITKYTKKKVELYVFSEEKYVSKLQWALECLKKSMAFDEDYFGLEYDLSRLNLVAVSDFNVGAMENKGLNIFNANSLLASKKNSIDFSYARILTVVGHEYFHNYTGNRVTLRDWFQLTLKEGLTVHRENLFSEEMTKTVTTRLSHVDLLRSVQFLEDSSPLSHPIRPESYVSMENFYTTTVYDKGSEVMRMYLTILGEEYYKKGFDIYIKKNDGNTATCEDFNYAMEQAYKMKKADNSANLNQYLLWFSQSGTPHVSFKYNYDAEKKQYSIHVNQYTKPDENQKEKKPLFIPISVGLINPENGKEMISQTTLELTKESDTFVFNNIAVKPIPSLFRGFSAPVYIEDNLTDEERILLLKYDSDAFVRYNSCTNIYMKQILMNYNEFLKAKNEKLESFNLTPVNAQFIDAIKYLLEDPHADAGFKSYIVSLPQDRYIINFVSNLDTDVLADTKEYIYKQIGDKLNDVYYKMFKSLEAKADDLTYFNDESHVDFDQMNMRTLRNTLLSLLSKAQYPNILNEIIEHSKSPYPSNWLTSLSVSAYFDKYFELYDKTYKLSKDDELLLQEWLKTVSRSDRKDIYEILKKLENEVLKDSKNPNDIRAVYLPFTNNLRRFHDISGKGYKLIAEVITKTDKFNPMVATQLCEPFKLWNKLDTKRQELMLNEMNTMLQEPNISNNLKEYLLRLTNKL

On to `O=C(NN1C(=O)/C(=C/C=C/c2ccco2)SC1=S)c1ccccc1O`, for which the 50% inhibitory concentration (IC50) on Aminopeptidase N is 73.5 µM (active); on Large T antigen, 18.8 µM (active); in [1] it was 47.6 µM (not active); in assay [2] it was 80.6 µM (active); in [3] it was 2.42 µM (active); in [4], 15.8 µM (active). The IC50 in [5] was 25.9 µM (active); in [6], 30.7 µM (active).
On to `CN1C(=O)N(C)C(=O)C2(Cc3ccccc3N3CCCC32)C1=O` (stereo unspecified), for which the half-maximal activity concentration (AC50) in [7] is 14.2 µM (active).
Take `CCOC(=O)c1cnc(-n2nc(C)cc2C)nc1NNc1nc(C)cc(C)n1`: the concentration giving a half-maximal response (EC50) in [8] was 65.5 µM (active); in assay [9], > 300 µM (inconclusive); in [11] it was 8.43 µM (active); in [12] it was 21.3 µM (active); in [13], 21.4 µM (active). In addition, in assay [10], the IC50 was 66 µM (active).
For the molecule `Clc1ccc(Cn2ncc3c(N4CCN(c5cccc(Cl)c5)CC4)ncnc32)cc1`, the IC50 in assay [14] was > 32 µM (inactive).

By IC50 is commonly meant the concentration needed to halve the response being measured. The term AC50 denotes the concentration giving half of the maximal activity seen. A word on the EC50: it is the concentration giving half of the maximal effect.
